Results reported in patent US20100273801A1, “BETULIN DERIVED COMPOUNDS USEFUL AS ANTIBACTERIAL AGENTS” (Valition teknillinen tutikimuskeskus, priority 2006, published 2010).
Structures can show the parent of a compound that is named as a salt. Where two headings read alike, the source gives them in different places.

Columns and labels:
Micrococcus luteus = assay: turbidometric bacterial growth inhibition on a 96 well plate; conditions: for percent growth inhibition M. luteus 4 h / percent growth inhibition M. luteus 24 h: compound 1 mg/ml; for inhibition at 1000 µg/mL / inhibition at 0.1 µg/mL / inhibition at 1 µg/mL: Micrococcus luteus
Protocol: (§1) The antimicrobial efficiency of betulin derived compounds against Staphylococcus aureus, Staphylococcus epidemidis, Micrococcus luteus and Bacillus subtilis was studied using a turbidometric method on a 96 well plate.
(§2) After juvenescence, suspension cultivation was prepared from the bacterial strains in the Todd-Hewitt broth. The suspension was introduced with a pipette to a 96 well plate, followed by the addition of the compound to be tested (3 parallel tests for each compound). […] Erythromycin was used as the control. Bacterial growth was monitored by measuring the absorbances of the samples at 620 nm at 0, 1, 2, 3, 4 and 24 hours. The sample plate was incubated at 37° C. in a shaker (250 rpm) between the measurements. Effects of the compounds on bacterial growth were evaluated by comparison of the growths of exposed and unexposed samples.

S. epidermidis = assay: as above; conditions: for percent growth inhibition S. epidermidis 4 h / percent growth inhibition S. epidermidis 24 h: compound 1 mg/ml; for inhibition at 1000 µg/mL / inhibition at 0.1 µg/mL / inhibition at 1 µg/mL: Staphylococcus epidermidis
Protocol: as §1, §2

Staphylococcus aureus = assay: as above; conditions: for percent growth inhibition S. aureus 4 h / percent growth inhibition S. aureus 24 h: compound 1 mg/ml; for inhibition at 1000 µg/mL / inhibition at 0.1 µg/mL / inhibition at 1 µg/mL: Staphylococcus aureus
Protocol: as §1, §2

Bacillus subtilis = assay: as above; conditions: for percent growth inhibition B. subtilis 4 h / percent growth inhibition B. subtilis 24 h: compound 1 mg/ml; for inhibition at 1000 µg/mL / inhibition at 0.1 µg/mL / inhibition at 1 µg/mL: Bacillus subtilis
Protocol: as §1, §2

bacteria = assay: antibacterial activity of compounds derived from betulin (summary statement); type: cell-based; conditions: already at a concentration of 1 μg/ml
Excerpt: Erythromycin was used as the control.

[1] = 4 h, read-out: percent growth inhibition M. luteus 4 h
[2] = 24 h, read-out: percent growth inhibition M. luteus 24 h
[3] = 4 h, read-out: percent growth inhibition S. epidermidis 4 h
[4] = 24 h, read-out: percent growth inhibition S. epidermidis 24 h
[5] = 4 h, read-out: percent growth inhibition S. aureus 4 h
[6] = 24 h, read-out: percent growth inhibition S. aureus 24 h
[7] = 4 h, read-out: percent growth inhibition B. subtilis 4 h
[8] = 24 h, read-out: percent growth inhibition B. subtilis 24 h

Compound | percent growth inhibition M. luteus 4 h (Micrococcus luteus; 4 h) [%] | percent growth inhibition M. luteus 24 h (Micrococcus luteus; 24 h) [%] | percent growth inhibition S. epidermidis 4 h (S. epidermidis; 4 h) [%] | percent growth inhibition S. epidermidis 24 h (S. epidermidis; 24 h) [%] | percent growth inhibition S. aureus 4 h (Staphylococcus aureus; 4 h) [%] | percent growth inhibition S. aureus 24 h (Staphylococcus aureus; 24 h) [%] | percent growth inhibition B. subtilis 4 h (Bacillus subtilis; 4 h) [%] | percent growth inhibition B. subtilis 24 h (Bacillus subtilis; 24 h) [%] | other results
3,28-C18-dialkenylsuccinic acid diester of betulin [Compound 20] | 0.0 | 12.6 | 0.0 | 0.0 | 0.0 | 0.0 | 0.0 | 9.0 | –
3,28-diisostearic acid ester of betulin [Compound 1] | 8.8 | 7.6 | 0.0 | 0.0 | 2.1 | 0.0 | 0.0 | 8.9 | –
3,28-octanedioic acid ester of betulin [Compound 10] | 0.0 | 2.7 | 0.0 | 1.7 | 0.0 | 0.0 | 0.0 | 2.6 | –
28-C18-alkenylsuccinic acid diester of betulin [Compound 21] | 0.0 | 10.1 | 0.0 | 0.0 | 0.0 | 0.0 | 0.0 | 6.9 | –
C=C(C)[C@@H]1CC[C@]2(C(=O)O)CC[C@]3(C)[C@H](CC[C@@H]4[C@@]5(C)CCC(=O)C(C)(C)[C@@H]5CC[C@]43C)[C@@H]12 [Compound 5, betulonic acid] | 91.3 | 0.0 | 52.7 | 0.0 | 51.6 | 0.0 | 102.3 | 0.0 | antibacterial activity (bacteria): considerable antibacterial activity
C=C(C)[C@@H]1CC[C@]2(C(=O)NC(CC(=O)OC)C(=O)OC)CC[C@]3(C)C(CCC4[C@@]5(C)CCC(=O)C(C)(C)C5CC[C@]43C)C12 (stereo partly shown) [Compound 8, 28-aspartate dimethylesteramide of betulonic acid] | – | – | – | – | – | – | – | – | inhibition at 1000 µg/mL (Micrococcus luteus; [1]): 0%; inhibition at 1000 µg/mL (Micrococcus luteus; [2]): 0%; inhibition at 1000 µg/mL (S. epidermidis; [3]): 0%; inhibition at 1000 µg/mL (S. epidermidis; [4]): 0%; inhibition at 1000 µg/mL (Staphylococcus aureus; [5]): 0%; inhibition at 1000 µg/mL (Staphylococcus aureus; [6]): 0%; inhibition at 1000 µg/mL (Bacillus subtilis; [7]): 0%; inhibition at 1000 µg/mL (Bacillus subtilis; [8]): 5.8%
C=C(C)[C@@H]1CC[C@]2(COC(=O)COc3cc(C(C)C)ccc3C)CC[C@]3(C)[C@H](CC[C@@H]4[C@@]5(C)CC[C@H](O)C(C)(C)[C@@H]5CC[C@]43C)[C@@H]12 [Compound 23, 28-carvacrolacetic acid ester of betulin] | 0.0 | 0.1 | 6.8 | 0.0 | 9.9 | 11.1 | 0.7 | 7.3 | –
C=C(C)[C@@H]1CC[C@]2(COS(C)(=O)=O)CC[C@]3(C)[C@H](CC[C@@H]4[C@@]5(C)CC[C@H](OC(C)=O)C(C)(C)[C@@H]5CC[C@]43C)[C@@H]12 [Compound 25, betulin 3-acetate-28 mesylate] | 1.6 | 12.4 | 3.2 | 12.7 | 6.9 | 0.0 | 0.0 | 15.2 | –
C=C(C)[C@@H]1CC[C@]2(COC(=O)c3ccccc3NC(C)=O)CC[C@]3(C)C(CCC4[C@@]5(C)CC[C@H](O)C(C)(C)C5CC[C@]43C)C12 (stereo partly shown) [Compound 29, 28-N-acetylanthranilic acid ester of betulin] | 89.9 | 60.5 | 66.6 | 20.2 | 102.6 | 103.4 | 100.8 | 54.6 | antibacterial activity (bacteria): considerable antibacterial activity
C=C(C)C1CCC2(COC(=O)C=Cc3ccccc3)CCC3(C)C(CCC4C5(C)CCC(O)C(C)(C)C5CCC43C)C12 (stereo not shown) [Compound 30, 28-cinnamic acid ester of betulin] | 0.0 | 0.0 | 8.5 | 0.0 | 13.0 | 0.0 | 5.9 | 11.1 | –
CC[C@H]1OC(=O)[C@H](C)[C@@H](O[C@H]2C[C@@](C)(OC)[C@@H](O)[C@H](C)O2)[C@H](C)[C@@H](O[C@@H]2O[C@H](C)C[C@H](N(C)C)[C@H]2O)[C@](C)(O)C[C@@H](C)C(=O)[C@H](C)[C@@H](O)[C@]1(C)O [Compound 31, erythromycin, reference compound] | – | – | – | – | – | – | – | – | inhibition at 0.1 µg/mL (Micrococcus luteus; [1]): 96.1%; inhibition at 1 µg/mL (Micrococcus luteus; [1]): 100%; inhibition at 0.1 µg/mL (Micrococcus luteus; [2]): 100%; inhibition at 1 µg/mL (Micrococcus luteus; [2]): 100%; inhibition at 0.1 µg/mL (S. epidermidis; [3]): 100%; inhibition at 1 µg/mL (S. epidermidis; [3]): 100%; inhibition at 0.1 µg/mL (S. epidermidis; [4]): 90.8%; inhibition at 1 µg/mL (S. epidermidis; [4]): 100%; inhibition at 0.1 µg/mL (Staphylococcus aureus; [5]): 53.6%; inhibition at 1 µg/mL (Staphylococcus aureus; [5]): 79.8%; inhibition at 0.1 µg/mL (Staphylococcus aureus; [6]): 11.7%; inhibition at 1 µg/mL (Staphylococcus aureus; [6]): 72.1%; inhibition at 0.1 µg/mL (Bacillus subtilis; [7]): 95.6%; inhibition at 1 µg/mL (Bacillus subtilis; [7]): 100%; inhibition at 0.1 µg/mL (Bacillus subtilis; [8]): 100%; inhibition at 1 µg/mL (Bacillus subtilis; [8]): 100%
betulin 3,28-diacetate-18-19-diene [Compound 6] | 0.0 | 1.5 | 0.0 | 0.0 | 0.0 | 0.0 | 0.0 | 3.7 | –
